# From patent publication US11998549B2, “Methods of treating a vascular leakage-associated disease or disorder” (UNITY HEALTH TORONTO, priority 2019, dated 2024)
# Experiments:
# Type in all cases: in vivo
# [1] = system: LPS-induced vascular leakage; test: Vascular leakage (leaked red blood cells in tailfin) in LPS-treated zebrafish larvae; details: comparison of UNC0642 and A366, zebrafish larvae, 27 μg/ml LPS, 24 h
# Protocol: (§1) An LPS induced zebrafish sepsis model which mimics the hallmarks of human sepsis was developed (Philip et al., 2017). Zebrafish show varied susceptibility and responsiveness to LPS from different bacterial strains. Exposure of zebrafish larvae at 3 days post-fertilization (dpf) to two types of LPS (LPS from Escherichia coli 0111:B4 (Sigma) at 100 μg/ml for 5-6 hrs; or LPS from Salmonella at 27 μg/ml for 24 hrs) were both effective in inducing tail fin swelling, increased ROS production, increased vascular leakage and increased mortality.
# 3 dpf Tg (flk1:GFP; gata-1:Dsred) double transgenic larvae were exposed to Vehicle, LPS (100 μg/ml) or LPS+1 μM UNC0642 by static immersion for 6 h at 28.5° C. to induce endothe-lial dysfunction and the resulting leakage of red blood cells. The larvae were then imaged using a Leica fluorescence microscope (Leica Microsystems, Wetzlar, Germany). Red blood cells that leaked out into the tailfin region were quantified.
# (§2) 3 dpf larvae were exposed to LPS by immersion technique. […] Control larvae were exposed to egg water. Survival numbers were recorded and EC50s calculated. The percentage (%) of embryos showing vascular leakage was also recorded and 1050s calculated.
# [2] = system: LPS induced zebrafish sepsis model; test: Survival in LPS induced zebrafish sepsis model; details: comparison of UNC0642 and A366, zebrafish larvae, 27 μg/ml LPS, 24 h
# Protocol: as §1
# Survival analyses for zebrafish (wildtype) exposed to various concentrations of LPS (Escherichia coli 0111:B4; Sigma) was performed. 3 dpf larvae were exposed to LPS by immersion technique. Larvae were treated with 10, 25, 50, 125, 250, 500, 1000, 2500, 5000 or 10000 nM UNC0642 along with 100 μg/ml LPS (LPS was dissolved in eggwater), by static immersion at 28.5° C. for 24 h in a total volume of 2 mL per treatment. Control larvae were exposed to egg water. Survival numbers were recorded and EC50s calculated.
# as §2
# zebrafish larvae = test: Toxicity in zebrafish larvae; details: 3 dpf larvae, observed daily for 72 hours post incubation
# Excerpt: Parameters of developmental toxicity (organ size and shape), cardiac toxicity (cardiac edema and heart rate), neuromuscular toxicity (touch response) and finally death were investigated.
structure (smiles),measurement,setting,value
"COc1cc2c(cc1OCCCN1CCCC1)N=C(N)C21CCC1 [A366, 5-Methoxy-6′-[3-(1-pyrrolidinyl)propoxy]spiro[cyclobutane-1,3′-[3H]indol]-2′-amine]",Rescue of sepsis-associated vascular leakage,[1],able to rescue
same,Rescue of sepsis-associated mortality,[2],able to rescue
same,Concentration below which non-toxic to zebrafish embryos,zebrafish larvae,below 2.5 mM
